From patent publication US20130040814A1, “HERBICIDAL COMPOSITION” (ISHIHARA SANGYO KAISHA, LTD., priority 2010, published 2013) come the findings set out here.

Assay [1] has as its system purple nutsedge. Description: Test Example 3: pot test, foliar application of herbicidal composition, visual growth inhibition. It counts as in vivo, Cyperus rofundus L. Particulars: Cyperus, read-out: Growth inhibition rate (%) of purple nutsedge, Measured value. The text has this:
(§1) Measured value of growth inhibition rate(%)(evaluated value by visual observation)=0(equivalent to non-treated area) to 100(complete kill)
(§2) That is, the measured value of growth inhibition rate (%) was rated to be 0% in a case where the level of the growth inhibition of weeds was the same in the non-treated area and to be 100% in a case where the growth was completed inhibited and the weeds were killed.
Upland field soil was put into a 1/1,000,000 ha pot, and tubers of purple nutsedge (Cyperus rofundus L) were planted. 54 days later, when purple nutsedge reached a height of 25 to 30 cm, a predetermined amount of a herbicidal composition was diluted with water (corresponding to 200 L/ha) containing 0.02 vol % of an agricultural adjuvant (tradename: Kusa-rino, manufactured by Nihon Nohyaku Co., Ltd.) and applied by foliar application by means of a small sprayer.
On the 42nd day after application, the state of growth of the plant was visually observed, and in the same manner as in Test Example 1, the measured growth inhibition rate (%) and the calculated growth inhibition rate (%) obtained by the Colby's formula are shown in Table 3.

For assay [2], the system named is purple nutsedge. Put plainly: Test Example 4: pot test, foliar application of flazasulfuron and dichlobenil wettable powder, visual growth inhibition. It counts as in vivo. Particulars: Cyperus.
Text: as §1, §2
(§3) Upland field soil was put into a 1/1,000,000 ha pot, and tubers of purple nutsedge were planted. When purple nutsedge reached a 13 leaf stage, a predetermined amount of SHIBAGEN DF (tradename) and a predetermined amount of a wettable powder containing dichlobenil as an active ingredient (tradename: Kasoron wettable powder, manufactured by AGRO-KANESHO Co., Ltd.) were diluted with water (corresponding to 2,000 L/ha) containing 0.02 vol % of Kusa-rino (tradename) and applied by foliar application by means of a small sprayer.
On the 42nd day after application, the state of growth of purple nutsedge was visually observed, and in the same manner as in Test Example 1, the measured growth inhibition rate (%) and the calculated growth inhibition rate (%) obtained by the Colby's formula are shown in Table 4.

Assay [3] relates to green kyllinga. Description: Test Example 6: pot test, sodium salt of trifloxysulfuron and chlorthiamid or dichlobenil, visual growth inhibition. It counts as in vivo, Kyllinga brevifolia var. leiolepis. Particulars: Cyperus brevifolius, 42nd day after application, height 10 cm, read-out: Growth inhibition rate (%) of green kyllinga, Measured value; for inhibition at 5000 g/ha: dose 5,000 g/ha.
Text: as §1, §2, §3
Upland field soil was put into a 1/1,000,000 ha pot, rhizomes of green kyllinga (Kyllinga brevifolia var. leiolepis) were planted. When the height of green kyllinga reached 10 cm, a predetermined amount of Monument water dispersible granules (tradename) and a predetermined amount of chlorthiamid (reagent, manufactured by Wako Pure Chemical Industries, Ltd.) or Kasoron wet powder (tradename) were applied in the same manner as in Test Example 4.

For assay [4], the system named is green kyllinga. Put plainly: Test Example 5: pot test, sodium salt of trifloxysulfuron and chlorthiamid, visual growth inhibition. It counts as in vivo, Kyllinga brevifolia var. leiolepis. As to conditions: Cyperus brevifolius, 42nd day after application, height 6 to 8 cm, read-out: Growth inhibition rate (%) of green kyllinga, Measured value.
Text: as §1, §2, §3
Upland field soil was put into a 1/1,000,000 ha pot, rhizomes of green kyllinga (Kyllinga brevifolia var. leiolepis) were planted.

Assay [5] relates to purple nutsedge. Description: Test Example 1: pot test, foliar application of flazasulfuron and granule application of chlorthiamid, visual growth inhibition. It counts as in vivo, Cyperus rofundus L. Particulars: Cyperus, read-out: Growth inhibition rate (%) of purple nutsedge, Measured value.
Text: When the herbicidal activity in a case where two active ingredients are combined, is larger than the simple sum (the expected activity) of the respective herbicidal activities of the two active ingredients, it is called a synergistic effect. The activity expected by the combination of two active ingredients can be calculated as follows (Colby S. R., “Weed”, vol. 15, p. 20-22, 1967).
(§4) Upland field soil was put into a 1/1,000,000 ha pot, and tubers of purple nutsedge (Cyperus rofundus L.) were planted. 33 days later, when purple nutsedge reached a 6 to 7 leaf stage, a predetermined amount of water dispersible granules containing flazasulfuron as an active ingredient (tradename: SHIBAGEN DF, manufactured by Ishihara Sangyo Kaisha, Ltd.) was diluted with water (corresponding to 200 L/ha) containing 0.02 vol % of an agricultural adjuvant (tradename: Kusa-rino, manufactured by Nihon Nohyaku Co., Ltd.) and applied by foliar application by means of a small sprayer, and a predetermined amount of granules containing chlorthiamid as an active ingredient (tradename: GF Ben-pole granules, manufactured by Suimitomo Chemical Garden Products Inc.) was applied by granule application.
as §1, §2

For assay [6], the system named is green kyllinga. Put plainly: Test Example 2: pot test on green kyllinga, visual growth inhibition. It counts as in vivo, Kyllinga brevifolia var. leiolepis. Particulars: Cyperus brevifolius, read-out: Growth inhibition rate (%) of green kyllinga, Measured value. On the procedure: as §4, §1, §2
Upland field soil was put into a 1/1,000,000 ha pot, and rhizomes of green kyllinga (Kyllinga brevifolia var. leiolepis) were planted. 46 days later, when the height of green kyllinga reached 4 to 7 cm, a predetermined amount of SHIBAGEN DF, (tradename) and a predetermined amount of GF Ben-pole (tradename) were applied in the same manner as in Test Example 1.

The mark [7] stands for this setting: read-out: Growth inhibition rate (%) of purple nutsedge, Measured value.

Structures can show the parent of a compound that is named as a salt.

For `N#Cc1c(Cl)cccc1Cl` [Dichlobenil, 2,6-dichlorobenzonitrile], in the assay on purple nutsedge [1], the inhibition at 500 g/ha amounted to 10%, the inhibition at 1000 g/ha worked out at 23%, the inhibition at 2000 g/ha stood at 10% and the inhibition at 4000 g/ha came to 33%. In the assay with purple nutsedge [2] (setting [7]), the inhibition at 500 g/ha was 10% and the inhibition at 4000 g/ha was 33%. For the same compound, the inhibition at 5000 g/ha in the assay with green kyllinga [3] is 58%.

As to `COc1cc(OC)nc(NC(=O)NS(=O)(=O)c2ncccc2OCC(F)(F)F)n1` [Sodium salt of trifloxysulfuron, 1-(4,6-dimethoxypyrimidin-2-yl)-3-[3-(2,2,2-trifluoroethoxy)-2-pyridylsulfonyl]urea], in the assay with green kyllinga [4] (dose 10 g/ha), the inhibition at 10 g/ha stood at 0%. In the assay on green kyllinga [4] (dose 200 g/ha), the inhibition at 200 g/ha stood at 25%. Moreover, the inhibition at 45 g/ha in the assay on green kyllinga [3] (dose 45 g/ha) was determined as 0%.

`NC(=S)c1c(Cl)cccc1Cl` [Chlorthiamid, 2,6-dichlorothiobenzamide]: in the assay with purple nutsedge [5], the inhibition at 1000 g/ha turned out to be 35%, the inhibition at 2000 g/ha stood at 33%, the inhibition at 4000 g/ha was found to be 50% and the inhibition at 6000 g/ha worked out at 69%. For the same compound, in the assay on green kyllinga [6], the inhibition at 1000 g/ha is 20% and the inhibition at 5000 g/ha was determined as 65%. In the assay on purple nutsedge [1], the inhibition at 500 g/ha worked out at 0%, the inhibition at 1000 g/ha turned out to be 0%, the inhibition at 2000 g/ha came to 18% and the inhibition at 4000 g/ha was found to be 33%. Further, in the assay with green kyllinga [4] (dose 1,000 g/ha), the inhibition at 1000 g/ha amounted to 18%. The inhibition at 10000 g/ha in the assay with green kyllinga [4] (dose 10,000 g/ha) was 30%. In addition, the inhibition at 5000 g/ha with green kyllinga [3] worked out at 58%.

For the compound `COc1cc(OC)nc(NC(=O)NS(=O)(=O)c2ncccc2C(F)(F)F)n1` [Flazasulfuron, 1-(4,6-dimethoxypyrimidin-2-yl)-3-(3-trifluoromethyl-2-pyridylsulfonyl)urea], the inhibition at 25 g/ha in the assay with purple nutsedge [5] (dose 25 g/ha, 36th day after application, 6 to 7 leaf stage) stood at 18%; with purple nutsedge [1] (dose 25 g/ha, 42nd day after application, height 25 to 30 cm), 87%; with purple nutsedge [2] (dose 25 g/ha, 42nd day after application, 13 leaf stage, read-out: Growth inhibition rate (%) of Purple nutsedge, Measured value) it was 87%. Besides, the inhibition at 50 g/ha was 73% in the assay with purple nutsedge [5] (dose 50 g/ha, 36th day after application, 6 to 7 leaf stage); 80% in the assay with green kyllinga [6] (dose 50 g/ha, 54th day after application, height 4 to 7 cm); 98% with purple nutsedge [1] (dose 50 g/ha, 42nd day after application, height 25 to 30 cm).
